# According to patent US20250250269A1, “HETEROCYCLIC GLP-1 AGONISTS” (Gasherbrum Bio, Inc., priority 2022, published 2025):
# Target: T1, GLP-1 Receptor (Homo sapiens, UniProt P43220)
# T1 construct: host or cells: HEK293/CRE-Luc (HEK293/GLP1R/CRE-LUC)
# Assay: GLP-1R agonist cAMP stimulation assay (HEK293/GLP1R/CRE-LUC cells, Cisbio cAMP dynamic 2 kit)
# Format: cell-based
# Conditions: HEK293/CRE-Luc cells stably expressing the GLP-1 Receptor, 30 min at 37° C.
# Description: Activation of GLP-1 receptor is known to stimulate cyclic AMP (cAMP) production in cells which indicates primary coupling to the Gas subunit of the G protein heterotrimeric complex.
# To optimize functional activity directed toward Gas coupling, a HEK293/CRE-Luc cell line developed by HDB stably expressing the GLP-1 Receptor was used. 200× concentration of compound working solutions were prepared (Agilent Technologies Bravo) with ½ log serial dilution in 384-well Echo LDV plate (Labcyte, Cat #LP-0200). […] 200× concentration of compound working solutions were moved to 384-well white low volume plate (Greiner, Cat #784075) using Labcyte ECHO550. 1×10^5 cells/mL HEK293/GLP1R/CRE-LUC (HD Biosciences) cell suspensions prepared with assay buffer [DPBS containing 0.5 mM IBMX (Sigma, Cat #15879) and 0.1% BSA (GENVIEW, Cat #FA016-100g)], 10 μL cell suspensions were added to each well of previous generated assay plate which already contains […] compound at 200×concentration using ThermoFisher Multidrop Combi (1000 cells/well). Seal the plate and incubate at 37° C. with 5% CO2 for 30 min.
# After incubation the cAMP assay signal was generated using cAMP dynamic 2 Kit (Cisbio). 5 μL cAMP-d2 working solution was added to each well, followed with 5 μL Anti-cAMP antibody-cryptate working solution added to each well using ThermoFisher Multidrop Combi. Incubate at room temperature for 1 hour protected from light. Read the fluorescence at 665 and 615 nm with Reader PerkinElmer EnVision.
# T1 sequence (P43220 24-463, species assumed): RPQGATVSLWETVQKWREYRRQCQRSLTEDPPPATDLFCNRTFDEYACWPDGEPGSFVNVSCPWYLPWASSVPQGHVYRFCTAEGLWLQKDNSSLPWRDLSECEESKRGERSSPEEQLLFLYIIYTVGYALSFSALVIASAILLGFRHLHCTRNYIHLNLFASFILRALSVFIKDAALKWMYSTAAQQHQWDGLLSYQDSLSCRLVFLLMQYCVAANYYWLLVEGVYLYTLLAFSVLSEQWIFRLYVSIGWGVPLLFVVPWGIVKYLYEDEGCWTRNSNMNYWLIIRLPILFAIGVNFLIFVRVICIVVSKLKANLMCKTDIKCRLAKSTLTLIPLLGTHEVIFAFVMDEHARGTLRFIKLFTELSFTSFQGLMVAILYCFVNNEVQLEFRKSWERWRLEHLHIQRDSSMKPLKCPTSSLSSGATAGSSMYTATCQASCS
row,Compound,EC50 [nM]
1,"O=C1CN(Cc2nc3cc(-c4nnc(C(F)(F)F)[nH]4)ncc3n2C[C@@H]2CCO2)CCN1c1ccc(F)c(OCc2ccc(Cl)cc2F)n1 [Compound 52, 1-{6-[(4-chloro-2-fluorophenyl)methoxy]-5-fluoropyridin-2-yl}-4-[(3-{[(2S)-oxetan-2-yl]methyl}-6-[5-(trifluoromethyl)-4H-1,2,4-triazol-3-yl]-3H-imidazo[4,5-c]pyridin-2-yl)methyl]piperazin-2-one]",< 1
2,"Fc1cc(Cl)ccc1COc1nc(C2CCN(Cc3nc4cc(-c5nnc(C(F)(F)F)[nH]5)nnc4n3C[C@@H]3CCO3)CC2)c(F)cc1F [Compound 50, 2-[(4-chloro-2-fluorophenyl)methoxy]-3,5-difluoro-6-{1-[(7-{[(2S)-oxetan-2-yl]methyl}-3-[5-(trifluoromethyl)-4H-1,2,4-triazol-3-yl]-7H-imidazo[4,5-c]pyridazin-6-yl)methyl]piperidin-4-yl}pyridine]",< 1
3,"COc1c(F)ccc(COc2cccc(C3CCN(Cc4nc5cc(-c6nnc(C(F)(F)F)[nH]6)ncc5n4C[C@@H]4CCO4)CC3)n2)c1F [Compound 3, (S)-2-((4-(6-((2,4-difluoro-3-methoxybenzyl)oxy)pyridin-2-yl)piperidin-1-yl)methyl)-3-(oxetan-2-ylmethyl)-6-(5-(trifluoromethyl)-4H-1,2,4-triazol-3-yl)-3H-imidazo[4,5-c]pyridine]",< 1
4,"Fc1cc(Cl)cc(F)c1COc1cccc(C2CCN(Cc3nc4cc(-c5nnc(C(F)(F)F)[nH]5)ncc4n3C[C@@H]3CCO3)CC2)n1 [Compound 6, (S)-2-((4-(6-((4-chloro-2,6-difluorobenzyl)oxy)pyridin-2-yl)piperidin-1-yl)methyl)-3-(oxetan-2-ylmethyl)-6-(5-(trifluoromethyl)-4H-1,2,4-triazol-3-yl)-3H-imidazo[4,5-c]pyridine]",< 1
5,"CC1(c2ccc(F)cc2F)Oc2cccc(C3CCN(Cc4nc5cc(-c6nnc(C(F)(F)F)[nH]6)ncc5n4C[C@@H]4CCO4)CC3)c2O1 (stereo partly drawn) [Compound 54, 4-[2-(2,4-difluorophenyl)-2-methyl-2H-1,3-benzodioxol-4-yl]-1-[(3-{[(2S)-oxetan-2-yl]methyl}-6-[5-(trifluoromethyl)-4H-1,2,4-triazol-3-yl]-3H-imidazo[4,5-c]pyridin-2-yl)methyl]piperidine]",< 1
6,"C[C@]1(c2ccc(Cl)cn2)Oc2cccc([C@@H]3CCN(Cc4nc5cc(-c6nnc(C(F)(F)F)[nH]6)cnc5n4C[C@@H]4CCO4)C[C@H]3F)c2O1 (single isomer, unassigned) [Compound 61]",< 1
7,"Cc1ccc(C2(C)Oc3cccc(C4CCN(Cc5nc6cc(-c7nnc(C(F)(F)F)[nH]7)cnc6n5C[C@@H]5CCO5)CC4)c3O2)cn1 (stereo partly drawn) [Compound 56, 2-methyl-5-[2-methyl-4-{1-[(3-{[(2S)-oxetan-2-yl]methyl}-6-[5-(trifluoromethyl)-4H-1,2,4-triazol-3-yl]-3H-imidazo[4,5-b]pyridin-2-yl)methyl]piperidin-4-yl}-2H-1,3-benzodioxol-2-yl]pyridine]",< 1
8,"Cc1ccc(COc2cccc(C3CCN(Cc4nc5cc(-c6nnc(C(F)(F)F)[nH]6)ncc5n4C[C@@H]4CCO4)CC3)n2)c(OC(F)F)n1 [Compound 15, (S)-2-((4-(6-((2-(difluoromethoxy)-6-methylpyridin-3-yl)methoxy)pyridin-2-yl)piperidin-1-yl)methyl)-3-(oxetan-2-ylmethyl)-6-(5-(trifluoromethyl)-4H-1,2,4-triazol-3-yl)-3H-imidazo[4,5-c]pyridine]",< 1
9,"CC1(c2ccc(F)cc2F)Oc2cccc(C3CCN(Cc4nc5cc(-c6nnc(C(F)(F)F)[nH]6)cnc5n4C[C@@H]4CCO4)CC3)c2O1 (stereo partly drawn) [Compound 53, 4-[2-(2,4-difluorophenyl)-2-methyl-2H-1,3-benzodioxol-4-yl]-1-[(3-{[(2S)-oxetan-2-yl]methyl}-6-[5-(trifluoromethyl)-4H-1,2,4-triazol-3-yl]-3H-imidazo[4,5-b]pyridin-2-yl)methyl]piperidine]",< 1
10,"O=C(O)c1cc2nc(CN3CC=C(c4ccc(F)c(OCc5ccc(Cl)cc5F)c4)CC3)n(C[C@@H]3CCO3)c2cn1 [Compound 30, (S)-2-((4-(3-((4-chloro-2-fluorobenzyl)oxy)-4-fluorophenyl)-3,6-dihydropyridin-1(2H)-yl)methyl)-3-(oxetan-2-ylmethyl)-3H-imidazo[4,5-c]pyridine-6-carboxylic acid]",1 to 100

# Next, values leading:
row,EC50 [nM],Compound
1,< 1,"C[C@]1(c2ccc(Cl)cc2F)Oc2cccc(C3CCN(Cc4nc5c(F)c(-c6noc(=O)[nH]6)ccc5n4C[C@@H]4CCO4)CC3)c2O1 [Compound 34, 3-(2-((4-((S)-2-(4-chloro-2-fluorophenyl)-2-methylbenzo[d][1,3]dioxol-4-yl)piperidin-1-yl)methyl)-4-fluoro-1-(((S)-oxetan-2-yl)methyl)-1H-benzo[d]imidazol-5-yl)-1,2,4-oxadiazol-5(4H)-one]"
2,< 1,"FC(F)Oc1nc(COc2cccc(C3CCN(Cc4nc5cc(-c6nnc(C(F)(F)F)[nH]6)ncc5n4C[C@@H]4CCO4)CC3)n2)ccc1Cl [Compound 13, (S)-2-((4-(6-((5-chloro-6-(difluoromethoxy)pyridin-2-yl)methoxy)pyridin-2-yl)piperidin-1-yl)methyl)-3-(oxetan-2-ylmethyl)-6-(5-(trifluoromethyl)-4H-1,2,4-triazol-3-yl)-3H-imidazo[4,5-c]pyridine]"
3,< 1,"C[C@]1(c2ccc(Cl)cc2F)Oc2cccc(C3CCN(Cc4nc5c(F)c(C(=O)O)ccc5n4C[C@@H]4CCO4)CC3)c2O1 [Compound 27, 2-((4-((S)-2-(4-chloro-2-fluorophenyl)-2-methylbenzo[d][1,3]dioxol-4-yl)piperidin-1-yl)methyl)-4-fluoro-1-(((S)-oxetan-2-yl)methyl)-1H-benzo[d]imidazole-5-carboxylic acid]"
4,< 1,"NC(=O)c1nnc(-c2cc3nc(CN4CC=C(c5ccc(F)c(OCc6ccc(Cl)cc6F)c5)CC4)n(C[C@@H]4CCO4)c3cn2)[nH]1 [Compound 32, (S)-5-(2-((4-(3-((4-chloro-2-fluorobenzyl)oxy)-4-fluorophenyl)-3,6-dihydropyridin-1(2H)-yl)methyl)-3-(oxetan-2-ylmethyl)-3H-imidazo[4,5-c]pyridin-6-yl)-4H-1,2,4-triazole-3-carboxamide]"
5,< 1,"Cc1c(F)ccc(COc2cccc(C3CCN(Cc4nc5cc(-c6nnc(C(F)(F)F)[nH]6)ncc5n4C[C@@H]4CCO4)CC3)n2)c1F [Compound 5, 2-[(2,4-difluoro-3-methylphenyl)methoxy]-6-{1-[(3-{[(2S)-oxetan-2-yl]methyl}-6-[5-(trifluoromethyl)-4H-1,2,4-triazol-3-yl]-3H-imidazo[4,5-c]pyridin-2-yl)methyl]piperidin-4-yl}pyridine]"
6,< 1,"FC(F)Oc1cccc(COc2cccc(C3CCN(Cc4nc5cc(-c6nnc(C(F)(F)F)[nH]6)ncc5n4C[C@@H]4CCO4)CC3)n2)n1 [Compound 9, (S)-2-((4-(6-((6-(difluoromethoxy)pyridin-2-yl)methoxy)pyridin-2-yl)piperidin-1-yl)methyl)-3-(oxetan-2-ylmethyl)-6-(5-(trifluoromethyl)-4H-1,2,4-triazol-3-yl)-3H-imidazo[4,5-c]pyridine]"
